Test results taken from patent US6375927B1, “Methods of radiotherapy using biomodulators” (priority 1991, dated 2002).

Columns and labels:
B-16 melanoma cells [1] = assay: Effect of a biomodulator on the biodistribution of a non-specific agent (I-125 BSA); assay type: in vivo, mice; conditions: 2 hours (FIG. 9) and 4 hours (FIG. 10)
Excerpt: The results of biodistribution studies of mice injected with 6×10^5 B-16 melanoma cells 7 days prior to the injection of Tc-99m labeled pokeweed (Tc-99m PWM) and I-125 bovine serum albumin (I-125 BSA) or Tc-99m labeled human serum albumin (Tc-99m HSA) and I-125 bovine serum albumin (I-125 BSA) .

[2] = system: xenografts of human teratocarcinoma tumors; assay: Imaging tumors with 99mTc-labeled TNF-α and biomodulators; assay type: in vivo, Balb/c mice; conditions: pretreatment 15 hours earlier
Method: Balb/c mice bearing xenografts of human teratocarcinoma tumors induced by subcutaneous injections of live tumor cells 8 days previously were injected with 10 μg of Ukrain, pokeweed mitogen or 10K units of interferon. 15 hours later, they were injected i.v. with 10 μCi of ^99mTc-labeled TNF-α labeled using the ascorbic acid reduction method of M. L. Thakur. M. L. Thakur et al., “Tc-99m Labeled Monoclonal Antibodies: Evaluation of Reducing Agents,” Internat. J. Nucl. Med. Biol. 18, 227-233 (1991). M. L. Thakur et al., “Tc-99m Labeled Monoclonal Antibodies for Immunoscintigraphy: Simplified Preparation and Evaluation,” J. Immunol. Methods 137, 217-225 (1991). Mice were imaged at 1.5, 4 and 24 hours post injection of the ^99m-labeled TNF-α and sacrificed for tissue distribution studies.

canine glioma tumors = assay: NMR imaging of tumor using pokeweed mitogen; effect on T1; assay type: in vivo, nude rats
Method: Three nude rats were implanted with canine glioma tumors in their left flank. […] NMR imaging was performed as above at 4 hours post injection.

B-16 melanoma cells [3] = assay: Tissue localization of otherwise non-specific imaging agent (Tc-99m HSA) after pokeweed mitogen; assay type: in vivo, mouse; conditions: 10 μg pokeweed mitogen four hours before 99mTc-HSA
Method: A mouse ([…]) was injected with B-16 melanoma cells in accordance with Example 1. 7 days later, 10 μg of pokeweed mitogen was injected into the mouse. Four hours later ^99mTc-human serum albumin (HSA) was injected. The resultant posterior gamma camera image is obtained of the tumor grown in the mouse. Comparison with the control image.

[4] = 4 and 24 hours post injection of TNF-α
[5] = 1.5 hours post injection of TNF-α
[6] = treatment with unlabeled PWM, FIG. 6

In the case of “I-125 BSA: I-125 bovine serum albumin, non-specific agent”, the “distribution of I-125 BSA depending on co-injected agent (Tc-99m PWM or Tc-99m HSA)” value (B-16 melanoma cells [1]) was “significant differences”.
interferon was tested, and the “tumor to muscle ratios of radioisotope uptake (99mTc-labeled TNF-α) compared to mice not receiving biomodulators or interferon” value [2, 4] was “not at 4 and 24 hours” and the “tumor to muscle ratios of radioisotope uptake (99mTc-labeled TNF-α) compared to mice not receiving biomodulators or interferon” value [2, 5] was “enhanced”.
For pokeweed mitogen, the “Visualization of the tumors (NMR imaging)” value (canine glioma tumors; 4 hours post injection, 7 days post-implantation) was “observed as bright areas”, the “effect on T1 of the treated tissue image” value (canine glioma tumors; NMR image, 4 hours post injection) was “lowers T1” and the “T1 measured on the tumor” value (canine glioma tumors; [6]) was “enhanced tenfold”. For the same substance, the “T1 of normal muscle tissue” value (canine glioma tumors; [6]) was “remained at baseline levels”, the “gamma camera image of tumor with 99mTc-HSA versus control image without pokeweed mitogen” value (B-16 melanoma cells [3]) was “significant image enhancement” and the “tumor to muscle ratios of radioisotope uptake (99mTc-labeled TNF-α) compared to mice not receiving biomodulators or interferon” value [2, 4] was “not at 4 and 24 hours”. For the same substance, the “tumor to muscle ratios of radioisotope uptake (99mTc-labeled TNF-α) compared to mice not receiving biomodulators or interferon” value [2, 5] was “enhanced”.
